Experiments:
Assay type in all cases: cell-based
[1] = tested on: ceftibuten-resistant Enterobacteriaceae expressing ESBL (n=20); assay: Checkerboard broth microdilution MIC, BLI concentration impact
Procedure: Minimum inhibitory concentrations (MICs) were determined by broth microdilution method following CLSI guidelines. Tested strains were ceftibuten-resistant Enterobacteriaceae expressing ESBL (n=20), KPC (n=20), OXA-48 (n=20) and/or Class C (n=20) beta-lactamases. For each isolate, one microtiter plate was prepared and formatted as a checkerboard with the BLI (Compound 2 or clavulanic acid) titrated down the plate and ceftibuten titrated across the plate. Each agent was also tested alone. MICs were determined as the well with the lowest concentration of ceftibuten without visible growth at each concentration of BLI.

E. coli 2150 = assay: Broth microdilution MIC (strain enzymes: SHV-3, TEM-1)
K. oxytoca 169219 = assay: Broth microdilution MIC (strain enzymes: TEM-1, CTXM-15)
E. coli SI-V502 = assay: Broth microdilution MIC (strain enzymes: TEM-29, CTX-M15)
K. pneumoniae 11/23 LF#2 = assay: microbe, parasite or virus in culture
K. pneumoniae 319478 = assay: Broth microdilution MIC (strain enzymes: SHV-12, CTX-M3 and TEM-1)
K. pneumoniae 329633 = assay: Broth microdilution MIC (strain enzymes: SHV-5, TEM-1)
K. pneumoniae ESBL 8 #2 = assay: Broth microdilution MIC (strain enzymes: SHV-12, TEM-1)
E. coli ESBL 2 = assay: Broth microdilution MIC (strain enzymes: TEM-1)
E. coli SI-M004 = assay: Broth microdilution MIC (strain enzymes: SHV-2, GES-12)

CCC(=O)N[C@H]1Cc2cccc(C(=O)O)c2OB1O [Compound 2, (R)-2-hydroxy-3-propionamido-3,4-dihydro-2H-benzo[e][1,2]oxaborinine-8-carboxylic acid]
0.03 µg/mL: MIC of ceftibuten (CTB) (K. oxytoca 169219; with inhibitor at 1 μg/mL)
1 µg/mL: MIC of cefalexin (LEX) (E. coli 2150; with inhibitor at 1 μg/mL) | MIC of cefdinir (CDR) (E. coli 2150; with inhibitor at 1 μg/mL) | MIC of cefalexin (LEX) (K. oxytoca 169219; with inhibitor at 1 μg/mL) | MIC of cefdinir (CDR) (K. oxytoca 169219; with inhibitor at 1 μg/mL) | MIC of cefalexin (LEX) (E. coli SI-V502; with inhibitor at 1 μg/mL) | MIC of cefdinir (CDR) (E. coli SI-V502; with inhibitor at 1 μg/mL) | MIC of cefixime (CFM) (K. pneumoniae 11/23 LF#2; with inhibitor at 4 μg/mL) | MIC of cefixime (CFM) (K. pneumoniae 319478; with inhibitor at 4 μg/mL) | MIC of cefixime (CFM) (K. pneumoniae 329633; with inhibitor at 1 μg/mL) | MIC of cefalexin (LEX) (K. pneumoniae 329633; with inhibitor at 4 μg/mL) | MIC of cefdinir (CDR) (K. pneumoniae 329633; with inhibitor at 4 μg/mL) | MIC of cefixime (CFM) (K. pneumoniae ESBL 8 #2; with inhibitor at 2 μg/mL) | MIC of cefixime (CFM) (E. coli SI-M004; with inhibitor at 4 μg/mL)
0.06 µg/mL: MIC of ceftibuten (CTB) (E. coli 2150; with inhibitor at 4 μg/mL) | MIC of ceftibuten (CTB) (K. pneumoniae 329633; with inhibitor at 1 μg/mL) | MIC of ceftibuten (CTB) (K. pneumoniae 329633; with inhibitor at 2 μg/mL) | MIC of ceftibuten (CTB) (K. pneumoniae 329633; with inhibitor at 4 μg/mL) | MIC of ceftibuten (CTB) (K. pneumoniae ESBL 8 #2; with inhibitor at 4 μg/mL)
2 µg/mL: MIC of cefixime (CFM) (K. pneumoniae 11/23 LF#2; with inhibitor at 2 μg/mL) | MIC of cefixime (CFM) (K. pneumoniae 319478; with inhibitor at 1 μg/mL) | MIC of cefalexin (LEX) (K. pneumoniae 319478; with inhibitor at 2 μg/mL) | MIC of cefdinir (CDR) (K. pneumoniae 319478; with inhibitor at 2 μg/mL) | MIC of cefixime (CFM) (K. pneumoniae 319478; with inhibitor at 2 μg/mL) | MIC of cefalexin (LEX) (K. pneumoniae 319478; with inhibitor at 4 μg/mL) | MIC of cefdinir (CDR) (K. pneumoniae 319478; with inhibitor at 4 μg/mL) | MIC of cefixime (CFM) (K. pneumoniae ESBL 8 #2; with inhibitor at 1 μg/mL)
0.0149 µg/mL: MIC of ceftibuten (CTB) (K. oxytoca 169219; with inhibitor at 2 μg/mL) | MIC of ceftibuten (CTB) (K. oxytoca 169219; with inhibitor at 4 μg/mL)
4 µg/mL: MIC of cefixime (CFM) (K. pneumoniae 11/23 LF#2; with inhibitor at 1 μg/mL) | MIC of cefalexin (LEX) (K. pneumoniae 319478; with inhibitor at 1 μg/mL) | MIC of cefdinir (CDR) (K. pneumoniae 319478; with inhibitor at 1 μg/mL) | MIC of cefixime (CFM) (E. coli SI-M004; with inhibitor at 1 μg/mL) | MIC of cefixime (CFM) (E. coli SI-M004; with inhibitor at 2 μg/mL)
0.125 µg/mL: MIC of ceftibuten (CTB) (E. coli 2150; with inhibitor at 1 μg/mL) | MIC of ceftibuten (CTB) (E. coli 2150; with inhibitor at 2 μg/mL) | MIC of cefixime (CFM) (K. oxytoca 169219; with inhibitor at 2 μg/mL) | MIC of cefixime (CFM) (K. oxytoca 169219; with inhibitor at 4 μg/mL) | MIC of ceftibuten (CTB) (E. coli SI-V502; with inhibitor at 4 μg/mL) | MIC of ceftibuten (CTB) (K. pneumoniae 11/23 LF#2; with inhibitor at 4 μg/mL) | MIC of ceftibuten (CTB) (K. pneumoniae 319478; with inhibitor at 1 μg/mL) | MIC of ceftibuten (CTB) (K. pneumoniae 319478; with inhibitor at 4 μg/mL) | MIC of ceftibuten (CTB) (K. pneumoniae ESBL 8 #2; with inhibitor at 1 μg/mL) | MIC of ceftibuten (CTB) (K. pneumoniae ESBL 8 #2; with inhibitor at 2 μg/mL) | MIC of ceftibuten (CTB) (E. coli ESBL 2; with inhibitor at 1 μg/mL) | MIC of ceftibuten (CTB) (E. coli ESBL 2; with inhibitor at 2 μg/mL) | MIC of cefixime (CFM) (E. coli ESBL 2; with inhibitor at 4 μg/mL) | MIC of ceftibuten (CTB) (E. coli ESBL 2; with inhibitor at 4 μg/mL) | MIC of ceftibuten (CTB) (E. coli SI-M004; with inhibitor at 2 μg/mL) | MIC of ceftibuten (CTB) (E. coli SI-M004; with inhibitor at 4 μg/mL)
0.5 µg/mL: MIC90 ([1]; read-out: CTB MIC90) | MIC of cefixime (CFM) (E. coli 2150; with inhibitor at 1 μg/mL) | MIC of cefalexin (LEX) (E. coli 2150; with inhibitor at 2 μg/mL) | MIC of cefdinir (CDR) (E. coli 2150; with inhibitor at 2 μg/mL) | MIC of cefixime (CFM) (E. coli 2150; with inhibitor at 2 μg/mL) | MIC of cefalexin (LEX) (E. coli 2150; with inhibitor at 4 μg/mL) | MIC of cefdinir (CDR) (E. coli 2150; with inhibitor at 4 μg/mL) | MIC of cefalexin (LEX) (K. oxytoca 169219; with inhibitor at 2 μg/mL) | MIC of cefdinir (CDR) (K. oxytoca 169219; with inhibitor at 2 μg/mL) | MIC of cefalexin (LEX) (K. oxytoca 169219; with inhibitor at 4 μg/mL) | MIC of cefdinir (CDR) (K. oxytoca 169219; with inhibitor at 4 μg/mL) | MIC of cefalexin (LEX) (E. coli SI-V502; with inhibitor at 2 μg/mL) | MIC of cefdinir (CDR) (E. coli SI-V502; with inhibitor at 2 μg/mL) | MIC of cefixime (CFM) (E. coli SI-V502; with inhibitor at 2 μg/mL) | MIC of cefalexin (LEX) (E. coli SI-V502; with inhibitor at 4 μg/mL) | MIC of cefdinir (CDR) (E. coli SI-V502; with inhibitor at 4 μg/mL) | MIC of cefalexin (LEX) (K. pneumoniae 11/23 LF#2; with inhibitor at 2 μg/mL) | MIC of cefdinir (CDR) (K. pneumoniae 11/23 LF#2; with inhibitor at 2 μg/mL) | MIC of cefixime (CFM) (K. pneumoniae 329633; with inhibitor at 2 μg/mL) | MIC of cefixime (CFM) (K. pneumoniae 329633; with inhibitor at 4 μg/mL) | MIC of cefalexin (LEX) (K. pneumoniae ESBL 8 #2; with inhibitor at 1 μg/mL) | MIC of cefdinir (CDR) (K. pneumoniae ESBL 8 #2; with inhibitor at 1 μg/mL) | MIC of cefixime (CFM) (K. pneumoniae ESBL 8 #2; with inhibitor at 4 μg/mL) | MIC of cefalexin (LEX) (E. coli ESBL 2; with inhibitor at 1 μg/mL) | MIC of cefdinir (CDR) (E. coli ESBL 2; with inhibitor at 1 μg/mL) | MIC of cefalexin (LEX) (E. coli ESBL 2; with inhibitor at 2 μg/mL) | MIC of cefdinir (CDR) (E. coli ESBL 2; with inhibitor at 2 μg/mL) | MIC of cefalexin (LEX) (E. coli SI-M004; with inhibitor at 1 μg/mL) | MIC of cefdinir (CDR) (E. coli SI-M004; with inhibitor at 1 μg/mL) | MIC of cefalexin (LEX) (E. coli SI-M004; with inhibitor at 2 μg/mL) | MIC of cefdinir (CDR) (E. coli SI-M004; with inhibitor at 2 μg/mL) | MIC of cefalexin (LEX) (E. coli SI-M004; with inhibitor at 4 μg/mL) | MIC of cefdinir (CDR) (E. coli SI-M004; with inhibitor at 4 μg/mL)
0.25 µg/mL: MIC50 ([1]; read-out: CTB MIC50) | MIC of cefixime (CFM) (E. coli 2150; with inhibitor at 4 μg/mL) | MIC of cefixime (CFM) (K. oxytoca 169219; with inhibitor at 1 μg/mL) | MIC of cefixime (CFM) (E. coli SI-V502; with inhibitor at 1 μg/mL) | MIC of ceftibuten (CTB) (E. coli SI-V502; with inhibitor at 1 μg/mL) | MIC of ceftibuten (CTB) (E. coli SI-V502; with inhibitor at 2 μg/mL) | MIC of cefixime (CFM) (E. coli SI-V502; with inhibitor at 4 μg/mL) | MIC of cefalexin (LEX) (K. pneumoniae 11/23 LF#2; with inhibitor at 1 μg/mL) | MIC of cefdinir (CDR) (K. pneumoniae 11/23 LF#2; with inhibitor at 1 μg/mL) | MIC of ceftibuten (CTB) (K. pneumoniae 11/23 LF#2; with inhibitor at 1 μg/mL) | MIC of ceftibuten (CTB) (K. pneumoniae 11/23 LF#2; with inhibitor at 2 μg/mL) | MIC of cefalexin (LEX) (K. pneumoniae 11/23 LF#2; with inhibitor at 4 μg/mL) | MIC of cefdinir (CDR) (K. pneumoniae 11/23 LF#2; with inhibitor at 4 μg/mL) | MIC of ceftibuten (CTB) (K. pneumoniae 319478; with inhibitor at 2 μg/mL) | MIC of cefalexin (LEX) (K. pneumoniae 329633; with inhibitor at 1 μg/mL) | MIC of cefdinir (CDR) (K. pneumoniae 329633; with inhibitor at 1 μg/mL) | MIC of cefalexin (LEX) (K. pneumoniae 329633; with inhibitor at 2 μg/mL) | MIC of cefdinir (CDR) (K. pneumoniae 329633; with inhibitor at 2 μg/mL) | MIC of cefalexin (LEX) (K. pneumoniae ESBL 8 #2; with inhibitor at 2 μg/mL) | MIC of cefdinir (CDR) (K. pneumoniae ESBL 8 #2; with inhibitor at 2 μg/mL) | MIC of cefalexin (LEX) (K. pneumoniae ESBL 8 #2; with inhibitor at 4 μg/mL) | MIC of cefdinir (CDR) (K. pneumoniae ESBL 8 #2; with inhibitor at 4 μg/mL) | MIC of cefixime (CFM) (E. coli ESBL 2; with inhibitor at 1 μg/mL) | MIC of cefixime (CFM) (E. coli ESBL 2; with inhibitor at 2 μg/mL) | MIC of cefalexin (LEX) (E. coli ESBL 2; with inhibitor at 4 μg/mL) | MIC of cefdinir (CDR) (E. coli ESBL 2; with inhibitor at 4 μg/mL) | MIC of ceftibuten (CTB) (E. coli SI-M004; with inhibitor at 1 μg/mL)

Source: patent US12544395B2, “Combination compositions comprising a beta-lactamase inhibitor and uses thereof” (priority 2018, dated 2026)
